Measurements from patent US20150307520A1, “NOVEL HETEROARYL AND HETEROCYCLE COMPOUNDS, COMPOSITIONS AND METHODS THEREOF” (HUTCHISON MEDIPHARMA LIMITED, priority 2012, published 2015).

Tests used:
Type in all cases: biochemical
p110δ/p85α = p110δ/p85α (Homo sapiens, UniProt O00329); assay: Transcreener KINASE Assay, kinase inhibition of p110δ/p85α; details: for PI3Kδ IH % @ 1 uM: 1 uM test compound; for IC50: read-out: PI3Kδ IC50
Outline: (§1)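 Steps: compound (2% DMSO final) plus enzyme in HEPES/NaCl/EGTA/CHAPS/3 mM MgCl2/1 mM DTT buffer; start with PIP2/ATP addition (30 uM/10 uM solution); 80 min RT; add ADP detection mix, 60 min RT; read fluorescence polarization.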

p110β/p85α = p110β/p85α (Homo sapiens, UniProt P42338); assay: Transcreener KINASE Assay, kinase inhibition of p110β/p85α; details: for PI3Kβ IH % @ 1 uM: 1 uM test compound; for IC50: read-out: PI3Kβ IC50
Outline: as §1

p110γ = p110γ (Homo sapiens, UniProt P48736); assay: Transcreener KINASE Assay, kinase inhibition of p110γ; details: for PI3Kγ IH % @ 1 uM: 1 uM test compound; for IC50: read-out: PI3Kγ IC50
Outline: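 Steps: enzyme reaction with compound, 80 min at room temperature; add ADP detection reagent, incubate 60 min at room temperature; read fluorescence polarization. Inhibition and IC50 values are derived from the ADP signal.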

Sequence of p110γ (P48736 whole entry): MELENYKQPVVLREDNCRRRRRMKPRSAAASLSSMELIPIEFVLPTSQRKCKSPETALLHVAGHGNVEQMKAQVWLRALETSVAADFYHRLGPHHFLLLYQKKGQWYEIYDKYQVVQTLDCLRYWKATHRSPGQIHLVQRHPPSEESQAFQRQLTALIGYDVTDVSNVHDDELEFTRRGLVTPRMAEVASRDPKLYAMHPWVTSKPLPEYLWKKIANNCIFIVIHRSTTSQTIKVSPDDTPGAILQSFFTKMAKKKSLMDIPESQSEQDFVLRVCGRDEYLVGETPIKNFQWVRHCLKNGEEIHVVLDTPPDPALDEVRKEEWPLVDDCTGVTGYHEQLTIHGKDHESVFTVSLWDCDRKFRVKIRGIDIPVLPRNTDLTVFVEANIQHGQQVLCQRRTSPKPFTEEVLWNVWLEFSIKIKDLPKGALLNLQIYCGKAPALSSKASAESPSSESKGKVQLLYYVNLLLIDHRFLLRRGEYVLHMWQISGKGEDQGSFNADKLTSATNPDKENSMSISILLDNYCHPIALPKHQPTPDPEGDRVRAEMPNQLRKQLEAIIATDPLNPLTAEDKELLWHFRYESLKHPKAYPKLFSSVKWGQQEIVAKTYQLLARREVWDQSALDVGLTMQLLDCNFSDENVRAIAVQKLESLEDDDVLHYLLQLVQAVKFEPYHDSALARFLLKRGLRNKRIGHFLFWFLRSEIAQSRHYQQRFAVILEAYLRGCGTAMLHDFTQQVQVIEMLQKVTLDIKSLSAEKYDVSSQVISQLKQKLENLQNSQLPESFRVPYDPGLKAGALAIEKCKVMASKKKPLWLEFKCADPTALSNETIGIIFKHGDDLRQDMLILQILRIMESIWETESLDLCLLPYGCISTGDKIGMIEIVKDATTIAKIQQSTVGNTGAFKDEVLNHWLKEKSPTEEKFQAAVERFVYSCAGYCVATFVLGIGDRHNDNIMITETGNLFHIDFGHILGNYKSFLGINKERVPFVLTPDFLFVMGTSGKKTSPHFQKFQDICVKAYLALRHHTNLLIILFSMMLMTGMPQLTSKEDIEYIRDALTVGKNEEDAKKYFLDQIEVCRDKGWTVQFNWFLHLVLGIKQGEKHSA
Sequence of p110β/p85α (P42338 whole entry): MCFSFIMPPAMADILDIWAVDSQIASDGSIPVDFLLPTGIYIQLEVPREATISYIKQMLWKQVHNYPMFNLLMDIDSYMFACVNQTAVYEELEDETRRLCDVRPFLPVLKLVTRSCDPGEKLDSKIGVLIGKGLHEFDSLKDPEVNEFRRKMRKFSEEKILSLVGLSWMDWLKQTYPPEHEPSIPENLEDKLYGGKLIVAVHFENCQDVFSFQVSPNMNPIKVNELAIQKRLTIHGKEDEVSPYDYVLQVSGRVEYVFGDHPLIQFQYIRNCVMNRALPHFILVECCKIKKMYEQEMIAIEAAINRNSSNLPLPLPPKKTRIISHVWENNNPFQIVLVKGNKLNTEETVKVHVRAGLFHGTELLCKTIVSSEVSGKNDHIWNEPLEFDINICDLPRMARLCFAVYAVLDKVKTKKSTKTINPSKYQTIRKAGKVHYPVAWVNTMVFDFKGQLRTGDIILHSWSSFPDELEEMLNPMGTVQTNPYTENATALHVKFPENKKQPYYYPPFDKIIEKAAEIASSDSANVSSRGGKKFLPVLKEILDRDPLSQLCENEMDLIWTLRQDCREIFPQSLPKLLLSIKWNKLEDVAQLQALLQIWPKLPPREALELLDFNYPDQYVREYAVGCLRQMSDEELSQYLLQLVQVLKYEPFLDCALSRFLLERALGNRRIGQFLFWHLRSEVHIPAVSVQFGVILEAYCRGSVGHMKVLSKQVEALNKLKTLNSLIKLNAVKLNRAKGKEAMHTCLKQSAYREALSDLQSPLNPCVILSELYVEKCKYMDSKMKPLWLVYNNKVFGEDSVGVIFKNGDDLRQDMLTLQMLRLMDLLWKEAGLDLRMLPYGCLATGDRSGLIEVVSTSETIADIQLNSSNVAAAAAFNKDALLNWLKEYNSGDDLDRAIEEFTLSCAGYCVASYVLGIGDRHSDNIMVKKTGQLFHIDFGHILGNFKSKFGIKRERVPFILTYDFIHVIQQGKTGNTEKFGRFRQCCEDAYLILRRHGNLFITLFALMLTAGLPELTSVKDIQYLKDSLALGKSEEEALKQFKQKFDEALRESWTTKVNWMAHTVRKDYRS
Sequence of p110β/p85α (P27986 2-724 partner): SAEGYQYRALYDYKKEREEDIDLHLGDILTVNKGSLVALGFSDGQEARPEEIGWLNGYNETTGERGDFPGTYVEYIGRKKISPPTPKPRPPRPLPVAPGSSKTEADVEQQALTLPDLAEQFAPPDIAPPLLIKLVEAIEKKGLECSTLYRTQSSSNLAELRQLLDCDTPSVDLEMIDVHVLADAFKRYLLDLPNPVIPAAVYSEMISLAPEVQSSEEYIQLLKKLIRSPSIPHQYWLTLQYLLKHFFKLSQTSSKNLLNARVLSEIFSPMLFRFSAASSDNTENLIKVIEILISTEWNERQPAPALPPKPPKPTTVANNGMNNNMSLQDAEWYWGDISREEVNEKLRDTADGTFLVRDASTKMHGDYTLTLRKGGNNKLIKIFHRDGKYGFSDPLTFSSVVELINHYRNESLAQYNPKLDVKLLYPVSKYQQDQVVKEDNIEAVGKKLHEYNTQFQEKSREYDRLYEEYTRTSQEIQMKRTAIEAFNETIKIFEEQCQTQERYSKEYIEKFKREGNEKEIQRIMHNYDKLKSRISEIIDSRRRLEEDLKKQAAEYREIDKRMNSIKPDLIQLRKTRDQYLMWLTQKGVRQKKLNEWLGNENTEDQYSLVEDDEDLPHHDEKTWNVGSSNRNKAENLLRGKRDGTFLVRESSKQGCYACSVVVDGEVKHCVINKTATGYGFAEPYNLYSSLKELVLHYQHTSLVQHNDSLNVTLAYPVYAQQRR
Sequence of p110δ/p85α (O00329 whole entry): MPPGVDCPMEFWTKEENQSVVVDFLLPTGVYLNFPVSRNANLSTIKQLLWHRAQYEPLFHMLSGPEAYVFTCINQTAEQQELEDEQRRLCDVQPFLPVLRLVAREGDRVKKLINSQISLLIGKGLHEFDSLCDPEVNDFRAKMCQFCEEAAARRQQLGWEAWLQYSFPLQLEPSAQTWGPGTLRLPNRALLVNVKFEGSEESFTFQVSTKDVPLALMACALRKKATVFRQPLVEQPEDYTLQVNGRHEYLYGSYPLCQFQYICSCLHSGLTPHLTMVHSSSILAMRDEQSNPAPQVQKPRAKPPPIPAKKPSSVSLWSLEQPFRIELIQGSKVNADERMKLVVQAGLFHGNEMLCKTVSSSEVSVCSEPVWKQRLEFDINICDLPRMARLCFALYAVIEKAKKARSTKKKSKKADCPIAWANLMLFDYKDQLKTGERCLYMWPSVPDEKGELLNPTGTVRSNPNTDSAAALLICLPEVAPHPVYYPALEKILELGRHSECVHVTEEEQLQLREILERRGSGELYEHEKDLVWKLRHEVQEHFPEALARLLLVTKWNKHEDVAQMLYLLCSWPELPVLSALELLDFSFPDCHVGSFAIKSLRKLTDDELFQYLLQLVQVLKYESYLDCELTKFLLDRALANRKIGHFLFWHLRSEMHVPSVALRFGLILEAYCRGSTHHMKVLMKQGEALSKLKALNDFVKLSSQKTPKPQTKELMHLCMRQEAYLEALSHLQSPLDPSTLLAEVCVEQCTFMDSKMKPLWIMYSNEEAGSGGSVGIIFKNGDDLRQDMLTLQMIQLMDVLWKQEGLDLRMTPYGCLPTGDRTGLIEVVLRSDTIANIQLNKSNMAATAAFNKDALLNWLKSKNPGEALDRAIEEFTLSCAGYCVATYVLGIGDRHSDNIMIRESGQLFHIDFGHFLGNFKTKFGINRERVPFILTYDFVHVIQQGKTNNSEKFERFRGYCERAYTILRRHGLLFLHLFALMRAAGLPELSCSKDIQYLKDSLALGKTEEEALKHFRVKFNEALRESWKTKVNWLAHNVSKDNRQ
Sequence of p110δ/p85α (P27986 whole entry partner): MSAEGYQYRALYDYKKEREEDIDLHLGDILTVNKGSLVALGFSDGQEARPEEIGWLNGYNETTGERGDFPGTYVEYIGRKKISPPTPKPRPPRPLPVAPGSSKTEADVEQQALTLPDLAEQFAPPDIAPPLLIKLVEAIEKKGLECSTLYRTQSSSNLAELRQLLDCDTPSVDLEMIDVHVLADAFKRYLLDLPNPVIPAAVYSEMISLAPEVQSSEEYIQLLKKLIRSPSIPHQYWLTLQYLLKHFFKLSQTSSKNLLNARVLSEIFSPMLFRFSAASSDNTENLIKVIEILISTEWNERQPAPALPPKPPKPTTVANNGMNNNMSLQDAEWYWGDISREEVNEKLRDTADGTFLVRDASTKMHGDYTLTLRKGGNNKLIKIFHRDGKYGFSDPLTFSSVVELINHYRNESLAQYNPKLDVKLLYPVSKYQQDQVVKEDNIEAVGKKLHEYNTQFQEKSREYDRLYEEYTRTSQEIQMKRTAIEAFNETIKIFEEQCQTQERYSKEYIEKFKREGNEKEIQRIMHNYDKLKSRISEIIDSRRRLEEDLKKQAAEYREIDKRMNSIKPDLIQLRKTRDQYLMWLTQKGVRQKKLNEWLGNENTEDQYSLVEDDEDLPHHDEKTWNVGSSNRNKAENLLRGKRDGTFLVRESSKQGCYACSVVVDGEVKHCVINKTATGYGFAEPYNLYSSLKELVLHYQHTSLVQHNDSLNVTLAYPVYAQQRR

Row | Structure (SMILES) | PI3Kδ IH % @ 1 uM (p110δ/p85α) | IC50 (p110δ/p85α) | PI3Kβ IH % @ 1 uM (p110β/p85α) | IC50 (p110β/p85α) | PI3Kγ IH % @ 1 uM (p110γ) | IC50 (p110γ)
1 | CC(=O)c1c[nH]c2ncnc(N[C@H](C)c3cn4ccc(F)c4c(=O)n3-c3ccccc3)c12 [Compound 405, (R)-3-(1-((5-acetyl-7H-pyrrolo[2,3-d]pyrimidin-4-yl)amino)ethyl)-8-fluoro-2-phenylpyrrolo[1,2-a]pyrazin-1(2H)-one] | >100% | 0.003 µM | 86.5% | 0.332 µM | 92.3% | 0.002 µM
2 | CC(=O)c1c[nH]c2ncnc(N[C@@H](C)c3cn4ccc(F)c4c(=O)n3-c3ccccc3)c12 [Compound 406, (S)-3-(1-((5-acetyl-7H-pyrrolo[2,3-d]pyrimidin-4-yl)amino)ethyl)-8-fluoro-2-phenylpyrrolo[1,2-a]pyrazin-1(2H)-one] | 90.0% | 0.073 µM | 7.7% | – | 35.2% | –
3 | C[C@H]1CN(c2nc(N)ncc2C#N)C1c1nn2ccc(Cl)c2c(=O)n1-c1ccc(F)cc1 (some centres unmarked) [Compound 432] | 81.3% | 0.16 µM | 43.2% | – | 89.0% | 0.009 µM
4 | CC(=O)c1cnc(N)nc1NC(C)c1cn2ccc(Cl)c2c(=O)n1-c1cccc(F)c1 (centres unmarked) [Compound 435] | 99.7% | 0.003 µM | 91.2% | 0.014 µM | 83.7% | –
5 | Cc1nc(N)nc(N2C[C@H](C)C2c2nn3ccc(Cl)c3c(=O)n2-c2ccccc2)c1C#N (some centres unmarked) [Compound 437] | 96.3% | 0.001 µM | 97.1% | 0.027 µM | 91.3% | 0.002 µM
6 | Cc1nc(N)nc(N2C[C@H](C)C2c2nn3ccc(Cl)c3c(=O)n2-c2ccc(F)cc2)c1C#N (some centres unmarked) [Compound 439] | 98.1% | 0.002 µM | 93.0% | 0.022 µM | 92.4% | 0.003 µM
7 | Cc1nc(N)nc(N2CC[C@H]2c2nn3ccc(Cl)c3c(=O)n2-c2cccc(F)c2)c1C#N [Compound 441] | 95.5% | 0.002 µM | 56.2% | – | 97.7% | 0.014 µM
8 | Cc1nc(N)nc(N2CC[C@H]2c2nn3ccc(Cl)c3c(=O)n2-c2ccc(F)cc2)c1C#N [Compound 442] | 94.2% | 0.012 µM | 76.1% | – | 94.6% | 0.001 µM
9 | CC(=O)c1cnc(N)nc1N[C@@H](C)c1cc2ncc(Cl)n2c(=O)n1-c1ccccc1 [Compound 447, (S)-7-(1-((5-acetyl-2-aminopyrimidin-4-yl)amino)ethyl)-3-chloro-6-phenylimidazo[1,2-c]pyrimidin-5(6H)-one] | 99.5% | 0.0004 µM | 95.8% | 0.022 µM | >100% | 0.004 µM
10 | Cc1nc(N)nc(N2C[C@H](C)[C@H]2c2nn3ccc(F)c3c(=O)n2-c2ccc(F)cc2)c1C#N [Compound 463] | >100% | 0.004 µM | 89.6% | 0.05 µM | >100% | 0.005 µM
11 | C[C@H]1CN(c2ncnc3[nH]cc(C#N)c23)[C@@H]1c1nn2ccc(Cl)c2c(=O)n1-c1ccc(F)cc1 [Compound 468] | >100% | 0.02 µM | 74.0% | 0.311 µM | 96.6% | –
12 | Cc1nc(N)nc(N2C[C@H](C)[C@H]2c2nn3ccc(Cl)c3c(=O)n2-c2ccccc2)n1 [Compound 469] | >100% | 0.019 µM | 47.1% | – | 90.5% | 0.051 µM
13 | C[C@H]1CN(c2ncnc3[nH]cc(C#N)c23)[C@@H]1c1nn2ccc(Cl)c2c(=O)n1-c1ccccn1 [Compound 476] | 95.9% | 0.001 µM | 78.1% | 0.079 µM | 89.5% | 0.024 µM
14 | C[C@H]1CN(c2nc(N)ncc2C#N)[C@@H]1c1nn2ccc(Cl)c2c(=O)n1-c1ccccn1 [Compound 477] | >100% | 0.058 µM | 31.7% | – | 76.1% | 0.351 µM
15 | Cc1nc(N)nc(N2C[C@H](C)[C@H]2c2nn3ccc(Cl)c3c(=O)n2-c2ccccn2)c1C#N [Compound 478] | >100% | 0.001 µM | 96.4% | 0.032 µM | >100% | 0.003 µM
16 | N#Cc1c[nH]c2ncnc(N3CC[C@H]3c3nn4ccc(C(F)(F)F)c4c(=O)n3-c3ccccc3)c12 [Compound 488] | 95.9% | 0.018 µM | 29.1% | – | 87.3% | 0.063 µM
17 | C[C@H]1CN(c2nc(N)ncc2C#N)[C@@H]1c1nn2ccc(C(F)(F)F)c2c(=O)n1-c1ccccc1 [Compound 490] | 96.6% | 0.054 µM | 33.4% | – | >100% | 0.015 µM

More lines, now with the values ahead:

Row | PI3Kδ IH % @ 1 uM (p110δ/p85α) | IC50 (p110δ/p85α) | PI3Kβ IH % @ 1 uM (p110β/p85α) | IC50 (p110β/p85α) | PI3Kγ IH % @ 1 uM (p110γ) | IC50 (p110γ) | Structure (SMILES)
18 | 98.1% | 0.001 µM | 71.7% | 0.123 µM | 93.1% | 0.007 µM | N#Cc1cnc(N)nc1N1CC(=O)C[C@H]1c1nn2ccc(Cl)c2c(=O)n1-c1ccccc1 [Compound 403]
19 | 93.7% | 0.003 µM | 31.1% | – | 95.6% | 0.01 µM | N#Cc1cnc(N)nc1N1CC(=O)C[C@H]1c1nn2ccc(Cl)c2c(=O)n1-c1cccc(F)c1 [Compound 404]
20 | 93.9% | 0.013 µM | 28.1% | – | 87.3% | 0.052 µM | C[C@H]1CN(c2nc(N)ncc2C#N)C1c1nn2ccc(F)c2c(=O)n1-c1ccccc1 (some centres unmarked) [Compound 430]
21 | 91.2% | 0.023 µM | 79.3% | 0.273 µM | 91.4% | 0.006 µM | CC(=O)c1cnc(N)nc1N1C[C@H](C)C1c1nn2ccc(F)c2c(=O)n1-c1ccc(F)cc1 (some centres unmarked) [Compound 438]
22 | 95.2% | 0.011 µM | 20.3% | – | 95.8% | 0.017 µM | CC(=O)c1cnc(N)nc1N1CC[C@H]1c1nn2ccc(Cl)c2c(=O)n1-c1cccc(F)c1 [Compound 440]
23 | 77.5% | 0.24 µM | 22.3% | – | 4.3% | – | CC(=O)c1c[nH]c2ncnc(N3CC(=O)C[C@H]3c3nn4ccc(F)c4c(=O)n3-c3ccccc3)c12 [Compound 445]
24 | 85.8% | 0.319 µM | 20.1% | – | 40.0% | – | CC(=O)c1cnc(N)nc1N1CC(=O)C[C@H]1c1nn2ccc(F)c2c(=O)n1-c1ccccc1 [Compound 446]
25 | >100% | 0.005 µM | 33.0% | – | 80.6% | 0.138 µM | C[C@H]1CN(c2nc(N)ncc2Cl)[C@@H]1c1nn2ccc(F)c2c(=O)n1-c1ccccc1 [Compound 464]
26 | >100% | 0.008 µM | 45.0% | – | 94.1% | 0.023 µM | C[C@H]1CN(c2nc(N)ncc2Cl)[C@@H]1c1nn2ccc(Cl)c2c(=O)n1-c1ccccc1 [Compound 465]
27 | >100% | 0.02 µM | 45.4% | – | 93.9% | 0.048 µM | CC1(C)CN(c2nc(N)ncc2Cl)C1c1nn2ccc(Cl)c2c(=O)n1-c1ccccc1 (centres unmarked) [Compound 466]
28 | 27.8% | – | 4.9% | – | 36.6% | – | CC(=O)c1cnc(N)nc1N1CC[C@@H]1c1nn2ccc(Cl)c2c(=O)n1-c1ccccc1 [Compound 470]
29 | 99.3% | 0.007 µM | 48.3% | – | 98.2% | 0.009 µM | CC(=O)c1cnc(N)nc1N1CCC1c1nn2ccc(Cl)c2c(=O)n1-c1ccccn1 (centres unmarked) [Compound 474]
30 | 91.6% | 0.01 µM | 20.1% | – | 94.7% | 0.12 µM | CC(=O)c1cnc(N)nc1N1CC[C@H]1c1nn2ccc(Cl)c2c(=O)n1-c1cccc(C)n1 [Compound 479]
31 | >100% | 0.001 µM | 91.9% | 0.266 µM | >100% | 0.007 µM | N#Cc1c(N)nc(N)nc1N1CCC1c1nn2ccc(Cl)c2c(=O)n1-c1ccccc1 (centres unmarked) [Compound 482]
32 | >100% | 0.096 µM | −2.1% | – | 45.2% | – | CC(=O)c1cnc(N)nc1N1CC(C)(C)[C@H]1c1nn2ccc(Cl)c2c(=O)n1-c1ccccc1 [Compound 485, (S)-2-(1-(5-acetyl-2-aminopyrimidin-4-yl)-3,3-dimethylazetidin-2-yl)-5-chloro-3-phenylpyrrolo[2,1-f][1,2,4]triazin-4(3H)-one]
